Measured values taken from PubChem BioAssay (NCI).
Several values for one entry are separate records, joined by “and”; a condition that tells them apart may be missing. Equal values may be shown once.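 Dose response: 5 concentrations. Exposure: 48 h. Format: 96-well plates. Endpoint: linear interpolation; highest concentration if not reached. GI50: concentration for 50% inhibition of growth. TGI denotes the concentration required for complete inhibition of growth.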

Assays:
Test in all cases: DTP human tumour cell line panel, 48 h
A498 renal = tested on: A498 renal
IGROV1 ovarian = tested on: IGROV1 ovarian
NCI-H226 lung = tested on: NCI-H226 lung
NCI-H23 lung = tested on: NCI-H23 lung
NCI/ADR-RES ovarian = tested on: NCI/ADR-RES ovarian
OVCAR-4 ovarian = tested on: OVCAR-4 ovarian
OVCAR-5 ovarian = tested on: OVCAR-5 ovarian
PC-3 prostate = tested on: PC-3 prostate
SN12C renal = tested on: SN12C renal
SW-620 colon = tested on: SW-620 colon

| SMILES | GI50 (A498 renal) | TGI (A498 renal) | GI50 (IGROV1 ovarian) | TGI (IGROV1 ovarian) | GI50 (NCI-H226 lung) | TGI (NCI-H226 lung) | GI50 (NCI-H23 lung) | TGI (NCI-H23 lung) | GI50 (NCI/ADR-RES ovarian) | TGI (NCI/ADR-RES ovarian) | GI50 (OVCAR-4 ovarian) | TGI (OVCAR-4 ovarian) | GI50 (OVCAR-5 ovarian) | TGI (OVCAR-5 ovarian) | GI50 (PC-3 prostate) | TGI (PC-3 prostate) | GI50 (SN12C renal) | TGI (SN12C renal) | GI50 (SW-620 colon) | TGI (SW-620 colon) |
| --- | --- | --- | --- | --- | --- | --- | --- | --- | --- | --- | --- | --- | --- | --- | --- | --- | --- | --- | --- | --- |
| Cc1ccc(NC(=O)/C=C/c2ccccc2)c(C(N)=O)c1 | 3.61 µM | 34.6 µM | 4.89 µM | > 56.1 µM | 6.46 µM | > 100 µM | 4.46 µM | > 100 µM | 2.54 µM | 18.2 µM | 9.17 µM | > 100 µM | 9.68 µM | > 100 µM | 4.07 µM | > 100 µM | 7.76 µM | > 100 µM | 2.5 µM | > 100 µM |
| COC(=O)Cn1c2c(c3c(O)cccc31)C(=O)c1ccccc1-2 | > 100 µM | > 100 µM | > 100 µM | > 100 µM | > 100 µM | > 100 µM | > 100 µM | > 100 µM | > 100 µM | > 100 µM | > 100 µM | > 100 µM | > 100 µM | > 100 µM | > 100 µM | > 100 µM | > 100 µM | > 100 µM | > 100 µM | > 100 µM |
| CCCn1c(C)nc2c1C(=O)c1ccccc1C2=O | 34.6 µM | > 100 µM | 14.5 µM | 42.1 µM | 57.3 µM | > 100 µM | 26.7 µM | > 100 µM | 22.9 µM | > 100 µM | 25 µM | > 100 µM | > 100 µM | > 100 µM | 11 µM | > 100 µM | 25.5 µM | > 100 µM | 33.5 µM | > 100 µM |
| COC(=O)C(Cc1ccccc1)NC(=O)NC(=O)NC(=O)CI (configuration not stated) | 18.4 µM | 33.2 µM | 3.05 µM | 10.1 µM | 11.1 µM | 39.3 µM | 6.79 µM | 28.2 µM | 19.8 µM | 84.3 µM | 4.41 µM | 24.4 µM | 13 µM | 29.7 µM | 17.3 µM | 33.1 µM | 20.3 µM | 53.3 µM | 5.95 µM | 21.7 µM |
| C/C(=N\Nc1ccc2ccccc2n1)c1ccccn1 | 0.239 µM | 2.48 µM |  | 0.979 µM | 0.134 µM | 2.12 µM | 0.156 µM | 13.6 µM | 0.0653 µM | 7.19 µM | < 0.0204 µM | 33.5 µM | 0.0832 µM | 14.5 µM |  | 7.23 µM | 0.0914 µM | 14.9 µM |  | 5.67 µM |
| O=C1C(=O)c2c(nc3ccc(Cl)cn23)-c2ccccc21 | 1.64 µM | 3.11 µM | 0.646 µM |  | 1.65 µM | 3.49 µM | 0.324 µM | 1.47 µM | 0.344 µM | 2.04 µM | 0.207 µM | 0.463 µM | 0.593 µM | 1.15 µM | 1.2 µM | 10.6 µM | 0.219 µM | 0.567 µM | 0.292 µM | 1.03 µM |
| C[C@]12CCC3[C@@H](CC[C@@H]4c5nonc5CC[C@]34C)C1CCC(=O)N2 (some centres not stated) | > 88.8 µM | > 100 µM |  | > 100 µM |  | > 100 µM |  | > 100 µM | > 100 µM | > 100 µM |  | > 100 µM |  | > 100 µM | 68.3 µM | > 100 µM |  | > 100 µM |  | > 100 µM |
| COc1cccc(NC(=O)c2sc3nc4c(cc3c2N)CN(Cc2ccccc2)CC4)c1 | 3.82 µM | 24.4 µM | 18.5 µM | > 100 µM | 6.03 µM | 38.3 µM | 7.18 µM | 49.2 µM | 2.4 µM | 33.3 µM | 2.68 µM | 19.7 µM | 36.9 µM | > 100 µM | 11.6 µM | 91.1 µM | 11.2 µM | > 100 µM | 1.85 µM | 72.2 µM |
| C=CC(=O)Nc1cccc(C)c1Nc1cc(-c2cccnc2Cc2c(C)c(OC)cc(OC)c2C)ncn1 | 1.93 µM | 9.44 µM | 14.2 µM | 53.9 µM | 10.5 µM | 63 µM | 12.7 µM | 47.3 µM | 9.9 µM | 38 µM | 20.6 µM | > 100 µM | 27.4 µM | > 100 µM | 5.65 µM | > 100 µM | 11.2 µM | 64.9 µM | 10.7 µM | 41.7 µM |
| COc1ccc2cc(-c3ccoc(=O)c3-c3cc(OC)c(OC)c(OC)c3)ccc2c1 | 0.0723 µM |  | 0.0339 µM | > 20.6 µM | 6.69 µM | > 100 µM | 0.141 µM |  | 0.0528 µM | > 100 µM | 1.16 µM | > 100 µM | 0.369 µM | > 100 µM | 0.0521 µM | > 100 µM | 0.639 µM | > 100 µM | 0.0455 µM | > 100 µM |
| O=S(=O)(NCCNC/C=C/c1ccc(Br)cc1)c1cccc2cnccc12 | 8.86 µM and 11.8 µM | 23.8 µM and 25.1 µM | 6.4 µM and 10.4 µM | 23.2 µM and 26.4 µM | 12.3 µM and 13.7 µM | 30.7 µM and 34.5 µM | 11.3 µM and 13.1 µM | 25.8 µM and 27.5 µM | 12.3 µM and 14.3 µM | 28.8 µM and 32.3 µM | 5.51 µM and 7.36 µM | 18.6 µM and 23.6 µM | 13.4 µM and 12.9 µM | 27.5 µM and 28 µM | 7.18 µM and 11.2 µM | 21.2 µM and 24.5 µM | 7.25 µM and 14.6 µM | 21 µM and 31.4 µM | 12.6 µM and 16.8 µM | 27.6 µM and 32.4 µM |
| N#Cc1c(N/N=C/c2c(Cl)cccc2Cl)nc(N)nc1N1CCOCC1 | 2.67 µM | 15.5 µM | 3.95 µM | 34.6 µM | 24.5 µM | > 100 µM | 44.5 µM | > 100 µM | 9.98 µM | 64.6 µM | > 100 µM | > 100 µM | 43.4 µM | > 100 µM | 3.91 µM | 95.8 µM | 16.8 µM | 85.7 µM | 6.11 µM | > 100 µM |
| COc1ccc(C(OCC2OC(n3ccc(NC(=O)c4ccccc4)nc3=O)C(O)C2O)(c2ccccc2)c2ccccc2)cc1 (configuration not stated) |  | 2.97 µM |  | 3.86 µM |  | 7.87 µM |  | 3 µM |  | 4.89 µM |  | 6.04 µM |  | 3.79 µM |  | 8.28 µM |  | 3.2 µM |  | 5.8 µM |
